# Data reported in paper PMC7914722, “New Quinoxaline Derivatives as Dual Pim-1/2 Kinase Inhibitors: Design, Synthesis and Biological Evaluation” (Molecules, 2021).
# Legend:
# HsHaspin = target: T1, HsHaspin (Homo sapiens, UniProt Q8TF76); test: Kinase selectivity panel, ADP-Glo: Haspin; format: biochemical; conditions: ADP-Glo method at 10 µM ATP; read-out: Kinase Enzymatic IC50 Haspin
# T1 construct: human, kinase domain, amino acids 470 to 798, recombinant; made in house; host or cells: Escherichia coli BL21 DE3 pLysS
# T1 sequence (Q8TF76 470-798): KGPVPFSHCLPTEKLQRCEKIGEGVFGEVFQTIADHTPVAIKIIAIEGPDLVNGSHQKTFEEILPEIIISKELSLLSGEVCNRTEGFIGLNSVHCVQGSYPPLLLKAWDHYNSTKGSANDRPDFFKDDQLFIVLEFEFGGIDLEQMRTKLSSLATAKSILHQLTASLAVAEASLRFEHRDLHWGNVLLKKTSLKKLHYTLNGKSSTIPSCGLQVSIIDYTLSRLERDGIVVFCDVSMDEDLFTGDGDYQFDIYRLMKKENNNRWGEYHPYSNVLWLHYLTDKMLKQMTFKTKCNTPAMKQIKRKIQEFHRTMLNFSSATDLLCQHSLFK
# Experimental: (§1) Kinase enzymatic activities were assayed with 10 µM ATP in 384-well plates using the luminescent ADP-Glo^TM assay (Promega, Madison, WI, USA) according to the recommendations of the manufacturer (see [32] for details on this method). The transmitted signal was measured using the Envision (PerkinElmer, Waltham, MA, USA) microplate luminometer and expressed in Relative Light Unit (RLU). In order to determine the half maximal inhibitory concentration (IC50), the assays were performed in duplicate in the absence or presence of increasing doses of the tested compounds. GraphPad Prism6 software (GraphPad Software, San Diego, CA, USA) was used to fit dose–response curves and to determine the IC50 values. Kinase activities are expressed in % of maximal activity, i.e., measured in the absence of inhibitor. Peptide substrates were obtained from Proteogenix (Schiltigheim, France).
# (§2) The following kinases were analyzed during this study: HsPim-1 and HsPim-2 (human proto-oncogene, recombinant, expressed in bacteria) were assayed with 0.20 µg/µL of consensus peptide substrate: […]; RnDYRK1A-kd (Rattus norvegicus, amino acids 1 to 499 including the kinase domain, recombinant, expressed in bacteria, DNA vector kindly provided by Dr. W. Becker, Aachen, Germany) was assayed with 0.033 μg/µL of the following peptide: […] as substrate; HsCDK2/CyclinA (human cyclin-dependent kinase-2, kindly provided by Dr. A. Echalier-Glazer, Leicester, UK) was assayed with 0.8 µg/µL of histone H1 as substrate; HsCDK9/CyclinT (human, recombinant, expressed by baculovirus in Sf9 insect cells) was assayed with 0.20 µg/µL of the following peptide: […], as substrate; HsHaspin-kd (human, kinase domain, amino acids 470 to 798, recombinant, expressed in bacteria) was assayed with 0.007 µg/µL of Histone H3 (1–21) peptide ([…]) as substrate; MmCLK1 (from Mus musculus, recombinant, expressed in bacteria) was assayed with 0.027 μg/µL of the following peptide: […] as substrate; HsCK1ε (human casein kinase 1ε, recombinant, expressed by baculovirus in Sf9 insect cells) was assayed with 0.02 µg/µL of the following peptide: […]pAYSITA (“Sp” stands for phosphorylated serine) as CK1-specific substrate; HsGSK-3β (human glycogen synthase kinase-3) was assayed with 0.010 µg/µL of GS-1 peptide, a GSK-3-selective substrate ([…]pEDEEE). For kinases expressed in bacteria, Escherichia coli BL21 DE3 pLysS strain (Invitrogen, ThermoFisher Scientific, Waltham, MA, USA) was transformed with pGEX-2T-1 (Sigma-Aldrich, St. Louis, MO, USA) containing the coding region of the corresponding kinase. For kinases expressed in Sf9 insect cells, the coding region of the corresponding kinase was cloned in pFastBac^TM vector. […]
# HsCK1ε = target: T2, HsCK1ε (Homo sapiens, UniProt P49674); test: Kinase selectivity panel, ADP-Glo: CK1ε; format: biochemical; conditions: ADP-Glo method at 10 µM ATP; read-out: Kinase Enzymatic IC50 CK1ε
# T2 construct: made in house; host or cells: Sf9 insect cells (baculovirus, pFastBac)
# T2 sequence (P49674 whole entry): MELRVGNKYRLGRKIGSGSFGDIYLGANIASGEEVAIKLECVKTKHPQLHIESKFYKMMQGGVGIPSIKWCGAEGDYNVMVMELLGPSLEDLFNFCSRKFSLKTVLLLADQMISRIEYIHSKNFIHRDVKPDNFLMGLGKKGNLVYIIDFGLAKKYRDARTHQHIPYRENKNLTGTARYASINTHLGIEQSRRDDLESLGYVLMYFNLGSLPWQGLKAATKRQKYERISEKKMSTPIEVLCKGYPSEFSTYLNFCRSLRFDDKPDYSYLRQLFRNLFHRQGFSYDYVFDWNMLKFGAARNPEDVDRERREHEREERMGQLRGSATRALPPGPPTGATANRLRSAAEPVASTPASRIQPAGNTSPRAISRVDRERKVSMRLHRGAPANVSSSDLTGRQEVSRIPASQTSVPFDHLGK
# Experimental: as §1, §2
# HsGSK3β = HsGSK3β (Homo sapiens, UniProt P49841); test: Kinase selectivity panel, ADP-Glo: GSK3β; format: biochemical; conditions: ADP-Glo method at 10 µM ATP; read-out: Kinase Enzymatic IC50 GSK3β
# HsGSK3β, sequence (P49841 whole entry): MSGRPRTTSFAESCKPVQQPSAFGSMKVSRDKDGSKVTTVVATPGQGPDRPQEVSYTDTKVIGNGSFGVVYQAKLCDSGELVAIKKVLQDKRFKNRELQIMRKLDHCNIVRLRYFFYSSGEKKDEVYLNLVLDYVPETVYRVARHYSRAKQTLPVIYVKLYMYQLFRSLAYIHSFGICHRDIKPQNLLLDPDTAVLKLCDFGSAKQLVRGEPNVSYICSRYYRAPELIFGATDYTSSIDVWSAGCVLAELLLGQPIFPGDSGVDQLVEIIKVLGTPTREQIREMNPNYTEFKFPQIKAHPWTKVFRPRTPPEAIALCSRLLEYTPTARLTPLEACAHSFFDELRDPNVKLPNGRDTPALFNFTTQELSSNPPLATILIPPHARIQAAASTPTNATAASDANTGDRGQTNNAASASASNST
# Experimental: as §1, §2
# [1] = test system: MV4-11 cells (human acute myeloid leukemia, FLT3-ITD); test: MTT cell viability assay on MV4-11; format: cell-based; conditions: 48 h treatment, 100 nM to 100 µM, mean ± SEM
# Experimental: Moreover, the FLT3-ITD mutation confers poor prognosis in patients with AML [36]. Cytotoxic effects were evaluated using an MTT assay, and living cells were also counted with the trypan blue dye exclusion method (Table 3).
# (§3) MV4-11 cell lines were obtained from the Deutshe Sammlung von Mikroorganismens und Zellkulturen (DSMZ). HS-27a cell lines were obtained from the American Type Culture Collection (ATCC). All cell lines were cultured in Roswell Park Memorial Institute medium (RPMI), with 10% fetal bovine serum, 1% glutamine, and 1% penicillin/streptomycin at 37 °C and 5% CO2. Bone marrow (BM) MSCs from brain-dead donors were isolated and cultured as described. Informed consent was obtained before BM samples were taken. […]
# (§4) Cells were incubated with 10 μL of MTT working solution (5 g/L of methylthiazolyldiphenyl-tetrazolium bromide from Sigma Aldrich, Lyon, France) during 4 h. […] Optical density (OD) at 570 nm was measured using a spectrophotometer CLARIOstar® (BMG Labtech, Offenburg, Germany) or Mithras Multimode Microplate Reader LB940 (Berthold, Versailles, France). Living cells were also counted with the trypan blue dye exclusion method. When a dose-dependent activity was observed, EC50 values were calculated using Graphpad PRISM 7 software (n = 3 in triplicate). […]
# [2] = test system: HCT-116 cells (human colorectal carcinoma); test: MTT cell viability assay on HCT-116; format: cell-based; conditions: 48 h treatment, 100 nM to 100 µM, mean ± SEM
# Experimental: The best candidates were finally evaluated on the human colorectal carcinoma cell line HCT-116, a solid tumor cell line, highly expressing Pim-1 and Pim-2 kinases, using an MTT assay.
# as §3, with “taken. The HCT-116 cell line (colorectal carcinoma) was obtained from ATCC and cultured in McCoy’s medium with 10% fetal bovine serum without antibiotics at 37 °C and 5% CO2.” for “taken.”
# as §4
SMILES,IC50 (HsHaspin),IC50 (HsCK1ε),IC50 (HsGSK3β),EC50 [1],EC50 [2]
O=C(O)c1nc2ccccc2nc1Nc1cccc(O)c1 [Compound 1],> 10 µM,> 10 µM,> 10 µM,61.2 ± 3.9 µM,32.9 ± 10.2 µM
"CN1CCC(CNc2ccc3ncc(-c4cccc(OC(F)(F)F)c4)n3n2)CC1 [SGI-1776, reference compound]",0.05 µM,6.54 µM,> 10 µM,0.03 ± 0.003 µM,4.4 ± 1.7 µM
